Laboratory results: patent US4760136A, “Chartreusin derivatives and salts thereof” (Ishihara Sangyo Kaisha, Ltd., priority 1984, dated 1988)
Read-outs that look alike come from different tables or passages of the source.

Key:
[1] = Acute toxicity, intravenous (once), ddY mice; assay type: in vivo; conditions: mouse, in vivo, formulated per Preparation Example
Excerpt: In Table 7 are shown acute toxicity values (LD50, mg/kg) in ddY mice in the case of intravenously administering (once) each of the compounds of this invention in the form of preparations shown in the Preparation Examples shown in Table 7.

[2] = test system: P-388 leukemia cells; experiment: Antitumor activity: P-388 leukemia cells inoculated intraperitoneally, drug administered intravenously, BDF1 mice; assay type: in vivo; conditions: Mus musculus, P388, iv, read-out: T/C (%) of MST; for response vs control in vivo at 20 mg/kg: dose b: 20 mg/kg × 3, i.v. on days 1, 5 and 9
Protocol: Into BDF1 mice were inoculated intraperitoneally P-388 leukemia cells at a rate of 1×10^6 cells/mouse, and each drug to be tested was administered intravenously on the first, fifth and ninth days after the inoculation. […] The drugs were as follows solutions prepared by adding physiological saline to each of compound Nos. 8, 9, 10, 11, 17, 34, 42, 59, 80 and 134; suspensions prepared by dispersing each of compound Nos. 41, 78, 98, 100, 130, 191, 212, 213, 215, 227 and 230 to 232 and a small amount of sodium carboxymethyl cellulose (Na.CMC) in physiological saline, […]

[3] = dose c: 40 mg/kg × 3, i.v. on days 1, 5 and 9, BDF1 mice, P-388 i.p.
[4] = dose f: 80 mg/kg × 3, i.v. on days 1, 5 and 9, BDF1 mice, P-388 i.p.

SMILES	LD50 ([1]; iv)	response vs control in vivo at 40 mg/kg [2, 3]	response vs control in vivo at 80 mg/kg [2, 4]	response vs control in vivo at 20 mg/kg ([2]; BDF1 mice, P-388 i.p.)	also measured
COC1C(O)C(C)OC(OC2C(Oc3cccc4c(OC(=O)CSc5ccccc5)c5c(=O)oc6ccc(C)c7c(=O)oc(c34)c5c67)OC(C)C3OC(C)(C)OC32)C1O (stereo not shown) [Compound No. 174]	≥ 80 mg/kg	148%	198%		
COC1C(O)C(C)OC(OC2C(Oc3cccc4c(OC(=O)CCCCCNC(=O)C(F)(F)F)c5c(=O)oc6ccc(C)c7c(=O)oc(c34)c5c67)OC(C)C3OC(C)(C)OC32)C1O (stereo not shown) [compound 98]	≥ 100 mg/kg		187%		
CO[C@H]1[C@@H](O)[C@@H](C)O[C@H](O[C@H]2[C@H](Oc3cccc4c(OC(=O)C5CC5C)c5c(=O)oc6ccc(C)c7c(=O)oc(c34)c5c67)O[C@H](C)[C@@H]3OC(c4ccc(Cl)cc4)O[C@@H]32)[C@@H]1O (stereo partly shown) [Compound No. 190]	≥ 80 mg/kg	145%	208%		
COC1C(O)C(C)OC(OC2C(Oc3cccc4c(OC(=O)C(C)(C)C)c5c(=O)oc6ccc(C)c7c(=O)oc(c34)c5c67)OC(C)C3OC(c4ccccc4)OC32)C1O (stereo not shown) [Compound No. 170]	≥ 40 mg/kg			198%	
COC1C(O)C(C)OC(OC2C(Oc3cccc4c(OC(=O)CCNC(C)=O)c5c(=O)oc6ccc(C)c7c(=O)oc(c34)c5c67)OC(C)C3OC(c4cccc(C(F)(F)F)c4)OC32)C1O (stereo not shown) [Compound No. 53]	≥ 80 mg/kg	165%	239%		
CCOCCC(=O)Oc1c2cccc(O[C@@H]3O[C@H](C)[C@@H]4OC(c5cccc(Cl)c5)O[C@@H]4[C@H]3O[C@H]3O[C@H](C)[C@H](O)[C@H](OC)[C@H]3O)c2c2oc(=O)c3c(C)ccc4oc(=O)c1c2c43 (stereo partly shown) [Compound No. 188]	≥ 60 mg/kg	193%			
COC1C(O)C(C)OC(OC2C(Oc3cccc4c(OC(=O)CCC(C)=O)c5c(=O)oc6ccc(C)c7c(=O)oc(c34)c5c67)OC(C)C3OC(c4cccc(C(F)(F)F)c4)OC32)C1O (stereo not shown) [Compound No. 162]	≥ 80 mg/kg	157%	243%		
COC1C(O)C(C)OC(OC2C(Oc3cccc4c(OC(=O)CC(C)NC(=O)C(F)(F)F)c5c(=O)oc6ccc(C)c7c(=O)oc(c34)c5c67)OC(C)C3OC(c4ccccc4)OC32)C1O (stereo not shown) [Compound No. 39]	≥ 40 mg/kg	214%		165%	
COC1C(O)C(C)OC(OC2C(Oc3cccc4c(OC(=O)CCNC(=O)OCc5ccccc5)c5c(=O)oc6ccc(C)c7c(=O)oc(c34)c5c67)OC(C)C3OC(c4cccc(F)c4)OC32)C1O (stereo not shown) [compound 73]	≥ 40 mg/kg	229%		176%	
COC1C(O)C(C)OC(OC2C(Oc3cccc4c(OC(=O)CCCCCNC(=O)OCc5ccccc5)c5c(=O)oc6ccc(C)c7c(=O)oc(c34)c5c67)OC(C)C3OC(C)(C)OC32)C1O (stereo not shown) [Compound No. 111, 6-O-(N-Carbobenzyloxy-6-Amino-n-Hexanoyl)-3',4'-O-Isopropylidene-Chartreusin]	≥ 100 mg/kg				response vs control in vivo at 60 mg/kg ([2]; dose e: 60 mg/kg × 3, i.v. on days 1, 5 and 9, BDF1 mice, P-388 i.p.): 175%
COC(=O)CCC(=O)Oc1c2cccc(O[C@@H]3O[C@H](C)[C@@H]4OC(C)(C)O[C@@H]4[C@H]3O[C@H]3O[C@H](C)[C@H](O)[C@H](OC)[C@H]3O)c2c2oc(=O)c3c(C)ccc4oc(=O)c1c2c43 [compound 202]	≥ 60 mg/kg	174%			
CCC1O[C@H]2[C@@H](O1)[C@@H](C)O[C@@H](Oc1cccc3c(OC(=O)C(C)CC)c4c(=O)oc5ccc(C)c6c(=O)oc(c13)c4c56)[C@@H]2O[C@H]1O[C@H](C)[C@H](O)[C@H](OC)[C@H]1O (stereo partly shown) [compound 219]					LD50 [1]: ≥ 80 mg/kg; response vs control in vivo at 40 mg/kg [2]: 130%; response vs control in vivo at 80 mg/kg [2]: 182%
COC1C(O)C(C)OC(OC2C(Oc3cccc4c(OC(=O)CCSC)c5c(=O)oc6ccc(C)c7c(=O)oc(c34)c5c67)OC(C)C3OC(c4ccccc4)OC32)C1O (stereo not shown) [Compound No. 152]	≥ 40 mg/kg	210%		157%	
